Laboratory results from patent US8709419B2, “Combination therapy” (Hoffmann-La Roche, Inc., priority 2010, dated 2014).
Where a name gives a salt, the structure may show the parent alone. Read-outs that look alike come from different tables or passages of the source.

Key:
[1] = test system: Human HT-29 Cell Xenografts; assay: HT-29 xenograft mice, Example 4 (Compound I / erlotinib HCl, treatment day 12-29): tumor growth inhibition, regression, survival; assay type: in vivo; settings: for Complete Regression / Partial Regression: animals of 10 per group; for 50% Treatment Days: median survival
Experimental: (§1) Differences between groups were considered to be significant when the probability value (p) was ≦0.05.
(§2) For survival assessment, the percent of increased life space (ILS) was calculated as: 100×[(median survival day of treated group−median survival day of control group)/median survival day of control group]. Median survival was determined utilizing Kaplan Meier survival analysis. […] Differences between groups were considered significant when the probability value (p) was ≦0.05.
(§3) Tumor measurements were taken once or twice per week. All animals were individually followed throughout the experiment.

[2] = test system: Human HT-29 Cell Xenografts; assay: HT-29 xenograft mice, Example 5 (Compound I / cetuximab, treatment day 12-34): tumor growth inhibition, regression, survival; assay type: in vivo; settings: for 50% Treatment Days: median survival
Experimental: as §1, §2, §3

[3] = Solubility in water, amorphous versus crystalline form; assay type: physicochemical; settings: amorphous form as compared with the crystalline form
[4] = test system: Human HT-29 Cell Xenografts; settings: for tumor regression (partial or complete): Ex.6: Compound I 25 mg/kg bid, cetuximab 40 mg/kg 2x/wk, irinotecan HCl 40 mg/kg q4d x5 monotherapies, cetuximab + irinotecan combination
[5] = Toxicity in Example 5 study: body weight change, mortality, gross observation
[6] = Toxicity in Example 6 study: body weight change, mortality, gross observation
[7] = Toxicity in Example 4 study: body weight change, mortality, gross observation
Experimental: Erlotinib hydrochloride at 100 mg/kg qd was included as a monotherapy arm for comparison.

[8] = erlotinib hydrochloride 100 mg/kg qd in combination; Higgins et al., Anticancer Drugs 15:503-12 (2004); cited from earlier work
[9] = Ex.4: Compound I 75 mg/kg bid po
[10] = Ex.5: Compound I 25 mg/kg bid po
[11] = Ex.5: Compound I 75 mg/kg bid po
[12] = Ex.5: Compound I 75 mg/kg bid po, animals of 10 per group
[13] = Ex.6: Compound I 25 mg/kg bid po, animals of 10 per group
[14] = Ex.6: Compound I 25 mg/kg bid po
[15] = Ex.4: erlotinib HCl 67 mg/kg qd po
[16] = Ex.4: erlotinib HCl 100 mg/kg qd po
[17] = Ex.6: irinotecan HCl 40 mg/kg q4d x5 ip

## CCCS(=O)(=O)Nc1ccc(F)c(C(=O)c2c[nH]c3ncc(-c4ccc(Cl)cc4)cc23)c1F [Compound I, propane-1-sulfonic acid {3-[5-(4-chloro-phenyl)-1H-pyrrolo[2,3-b]pyridine-3-carbonyl]-2,4-difluoro-phenyl}-amide]
[1]; [9]
  % ILS: 100%
  % Inhibition end of study Day: 29: 91%
  % T/C end of study Day: 29: 9%
  % Tumor Growth Inhibition: 91%
  Mean Tumor Volume (mm^3) End Study: 270.24 mm^3
  Complete Regression: 0
  Partial Regression: 0
  50% Treatment Days: 52 days
[2]; [10]
  % ILS: 44%
  % Inhibition end of study Day: 34: 74%
  % T/C end of study Day: 34: 26%
  % Tumor Growth Inhibition: 74%
  Mean Tumor Volume (mm^3) End Study: 615.99 mm^3
  50% Treatment Days: 46 days
[2]; [11]
  % ILS: 75%
  % Inhibition end of study Day: 34: 93%
  % T/C end of study Day: 34: 7%
  % Tumor Growth Inhibition: 93%
  Mean Tumor Volume (mm^3) End Study: 275.66 mm^3
  50% Treatment Days: 56 days
[2]; [12]
  Complete Regression: 0
  Partial Regression: 0
[3]
  solubility in water: greater solubility in water
[4]; [13]
  Complete Regression: 0
  Partial Regression: 0
[4]
  tumor regression (partial or complete): no regressions
[5]; [10]
  # animals ≧ 20% BWL: 0
  % Change in Body Weight at end of Study Day 34: 0.1%
  Max % Weight Gain: 0.3%
  Max % Weight Loss: −2.2%
  Mortality: 0
[5]; [11]
  # animals ≧ 20% BWL: 0
  % Change in Body Weight at end of Study Day 34: −0.1%
  Max % Weight Gain: 0.7%
  Max % Weight Loss: −1.4%
  Mortality: 0
[6]; [14]
  # animals ≧ 20% BWL: 0
  % Change in Body Weight at end of Study Day 32: 2.9%
  Max % Weight Gain: 3.8%
  Max % Weight Loss: −0.6%
  Mortality: 0

## C#Cc1cccc(Nc2ncnc3cc(OCCOC)c(OCCOC)cc23)c1 [Erlotinib HCl, erlotinib hydrochloride]
[1]; [15]
  % ILS: 35%
  % Inhibition end of study Day: 29: 38%
  % T/C end of study Day: 29: 62%
  % Tumor Growth Inhibition: 38%
  Mean Tumor Volume (mm^3) End Study: 1025.10 mm^3
  Complete Regression: 0
  Partial Regression: 0
  50% Treatment Days: 35 days
[1]; [16]
  % ILS: 38%
  % Inhibition end of study Day: 29: 51%
  % T/C end of study Day: 29: 49%
  % Tumor Growth Inhibition: 51%
  Mean Tumor Volume (mm^3) End Study: 838.75 mm^3
  Complete Regression: 0
  Partial Regression: 0
  50% Treatment Days: 36 days
[7]; [15]
  # animals ≧ 20% BWL: 0
  % Change in Body Weight at end of Study Day 29: 3.1%
  Max % Weight Gain: 3.1%
  Max % Weight Loss: 0.1%
  Mortality: 0
[7]; [16]
  # animals ≧ 20% BWL: 0
  % Change in Body Weight at end of Study Day 29: 2.9%
  Max % Weight Gain: 3.0%
  Max % Weight Loss: −1.6%
  Mortality: 0
[7]; Ex.4: mice treated with erlotinib hydrochloride, self limiting under continuous treatment
  EGFR inhibitor related skin rash: skin rash was common
[8]
  tolerability in combination (historical): not well tolerated

## CCc1c2c(nc3ccc(OC(=O)N4CCC(N5CCCCC5)CC4)cc13)-c1cc3c(c(=O)n1C2)COC(=O)[C@]3(O)CC [Irinotecan HCl, irinotecan hydrochloride, reference compound]
[4]
  tumor regression (partial or complete): no regressions
[4]; [17]
  % ILS: 17%
[6]; [17]
  # animals ≧ 20% BWL: 0
  % Change in Body Weight at end of Study Day 32: 2.7%
  Max % Weight Gain: 2.8%
  Max % Weight Loss: 0.1%
  Mortality: 0
